Assay results: paper PMC13187428, “Mechanistic basis for selective Csm6-2 activation by cyclic penta-adenylate in a type III CRISPR-Cas system” (The EMBO Journal, 2026)
Like-named read-outs stand apart in the source and are kept apart here. Blank lines part the entries; values can stand above or below the molecule they belong to.

What was measured:
Csm6-2 (ApCsm6-2) = molecular target: T1, Csm6-2 (ApCsm6-2) (Actinomyces procaprae, UniProt Z9IBH4OPS2); experiment: SPR (Biacore 8K, CM5 chip, amine-coupled Csm6-2); type: binding
T1 construct: full length, tandem CARF1-HEPN1 (1-400) and CARF2-HEPN2 (401-797); N-terminal His6 tag, pET-28a, E. coli Rosetta (DE3), codon-optimised; homotetramer
T1 sequence (Z9IBH4OPS2 1-797): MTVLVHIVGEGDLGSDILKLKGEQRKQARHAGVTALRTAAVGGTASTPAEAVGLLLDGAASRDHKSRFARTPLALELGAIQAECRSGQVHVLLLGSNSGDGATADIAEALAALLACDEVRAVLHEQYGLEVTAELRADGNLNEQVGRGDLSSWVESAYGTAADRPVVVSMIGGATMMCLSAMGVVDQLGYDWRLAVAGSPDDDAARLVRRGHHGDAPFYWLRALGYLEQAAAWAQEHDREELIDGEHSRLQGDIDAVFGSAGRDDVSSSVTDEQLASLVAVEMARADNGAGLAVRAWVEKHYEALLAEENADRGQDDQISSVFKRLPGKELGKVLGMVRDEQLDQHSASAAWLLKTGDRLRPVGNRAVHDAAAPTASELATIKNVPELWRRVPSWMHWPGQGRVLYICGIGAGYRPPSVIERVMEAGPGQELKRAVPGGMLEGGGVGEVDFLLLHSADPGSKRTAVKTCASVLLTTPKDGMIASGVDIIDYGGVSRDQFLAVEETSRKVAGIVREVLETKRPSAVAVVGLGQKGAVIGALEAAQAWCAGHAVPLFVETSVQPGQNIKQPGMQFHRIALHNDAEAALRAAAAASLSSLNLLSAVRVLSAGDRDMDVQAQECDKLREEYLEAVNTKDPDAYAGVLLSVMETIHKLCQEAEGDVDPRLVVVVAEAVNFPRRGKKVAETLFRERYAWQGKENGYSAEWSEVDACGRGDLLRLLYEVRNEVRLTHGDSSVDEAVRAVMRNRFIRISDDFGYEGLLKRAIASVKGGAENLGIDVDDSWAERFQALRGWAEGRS

[1] = molecular target: Csm6-2 L473E/L474E mutant (Actinomyces procaprae); experiment: SEC; size-exclusion chromatography profiles of WT and L473E/L474E mutant proteins

Kd (Csm6-2 (ApCsm6-2); PBST (0.5% Tween-20) running buffer, allosteric activator, CARF domain pocket): 1.41 nM
Molecule: Nc1ncnc2c1ncn2[C@@H]1O[C@@H]2COP(=O)(O)O[C@H]3[C@@H](O)[C@H](n4cnc5c(N)ncnc54)O[C@@H]3COP(=O)(O)O[C@H]3[C@@H](O)[C@H](n4cnc5c(N)ncnc54)O[C@@H]3COP(=O)(O)O[C@H]3[C@@H](O)[C@H](n4cnc5c(N)ncnc54)O[C@@H]3COP(=O)(O)O[C@H]3[C@@H](O)[C@H](n4cnc5c(N)ncnc54)O[C@@H]3COP(=O)(O)O[C@H]2[C@H]1O [cA5]

stoichiometry N [1]: 2
Molecule: Csm6-2 L473E/L474E mutant (enzyme)

Kd (Csm6-2 (ApCsm6-2)): 3.72 nM
Molecule: Nc1ncnc2c1ncn2[C@@H]1O[C@@H]2COP(=O)(O)O[C@H]3[C@@H](O)[C@H](n4cnc5c(N)ncnc54)O[C@@H]3COP(=O)(O)O[C@H]3[C@@H](O)[C@H](n4cnc5c(N)ncnc54)O[C@@H]3COP(=O)(O)O[C@H]3[C@@H](O)[C@H](n4cnc5c(N)ncnc54)O[C@@H]3COP(=O)(O)O[C@H]3[C@@H](O)[C@H](n4cnc5c(N)ncnc54)O[C@@H]3COP(=O)(O)O[C@H]3[C@@H](O)[C@H](n4cnc5c(N)ncnc54)O[C@@H]3COP(=O)(O)O[C@H]2[C@H]1O [cA6]
